Results published in patent US10815206B2, “RIP1 inhibitory compounds and methods for making and using the same” (priority 2018, dated 2020).
Like-named read-outs stand apart in the source and are kept apart here.

What was measured:
[1] = tested on: TNF-alpha induced hypothermia; assay: Acute hypothermia mouse model (TNF-alpha/zVAD-FMK induced hypothermia); format: in vivo; details: mice, oral gavage
Method: In this example, an acute hypothermia mouse model assay was used to evaluate the ability of compounds disclosed herein to inhibit TNF-alpha induced hypothermia.
Female C57BL/6 mice are randomly grouped and weighed on Day −1. On the day of the study (Day 0), mice are administered vehicle or test article by oral gavage. Fifteen minutes after oral administration of test agents, each mouse is administered an intraperitoneal (IP) injection of solution containing recombinant human tumor necrosis factor alpha (TNF-α, 25.0 μg) and zVAD-FMK (200 μg). Body temperature is measured at 0 hours (before IP injections) and every hour via rectal probe temperature measuring device. Three (3) hours after IP injections of TNF-α and zVAD/FMK, mice are euthanized by CO2 asphyxiation and blood is collected via cardiac puncture. Serum and plasma are harvested for determination of cytokine and compound levels, respectively. Separate groups of mice (satellite mice) are included for the determination of compound levels in plasma at the time of administration of TNFa/zVAD-FMK.
(S)-5-benzyl-N-(5-methyl-4-oxo-2,3,4,5-tetrahydrobenzo[b][1,4]oxazepin-3-yl)-4H-1,2,4-triazole-3-carboxamide (WO 2014/125444), having a structure as illustrated below, was used as a comparative compound and was examined using a similar protocol as described by WO 2014/125444.

[2] = tested on: TNF-alpha induced hypothermia; details: dose of 30 mg/kg, according to WO 2014/125444; cited from earlier work

CN1C(=O)[C@@H](NC(=O)c2n[nH]c(Cc3ccccc3)n2)COc2ccc(C#CC(C)(C)O)cc21 [Compound I-30, (S)-5-benzyl-N-(7-(3-hydroxy-3-methylbut-1-yn-1l-yl)-5-methyl-4-oxo-2,3,4,5-tetrahydrobenzo[b][1,4]oxazepin-3-yl)-1H-1,2,4-triazole-3-carboxamide]
inhibition of TNF-alpha induced hypothermia ([1]; dose of 5 mg/kg): greater than 85%

CN1C(=O)[C@@H](NC(=O)c2nnc(Cc3ccccc3)[nH]2)COc2ccccc21 [comparative compound, (S)-5-benzyl-N-(5-methyl-4-oxo-2,3,4,5-tetrahydrobenzo[b][1,4]oxazepin-3-yl)-4H-1,2,4-triazole-3-carboxamide]
inhibition of TNF-alpha induced hypothermia ([1]; 30 mg/kg, in the inventors hands): 70% | inhibition of TNF-alpha induced hypothermia [2]: 93%
